Measurements taken from publication PMC9074879, “Solubilization, purification, and ligand binding characterization of G protein-coupled receptor SMO in native membrane bilayer using styrene maleic acid copolymer” (PeerJ, 2022).

Molecular target: T1, Smoothened (SMO) (Homo sapiens, UniProt Q99835)
T1 construct: human SMO transmembrane domain (residues 190-555) fused with N-terminal 10-His tag and thermostabilized apocytochrome b562RIL, in SMA-nanodiscs
T1 sequence (Q99835 190-555): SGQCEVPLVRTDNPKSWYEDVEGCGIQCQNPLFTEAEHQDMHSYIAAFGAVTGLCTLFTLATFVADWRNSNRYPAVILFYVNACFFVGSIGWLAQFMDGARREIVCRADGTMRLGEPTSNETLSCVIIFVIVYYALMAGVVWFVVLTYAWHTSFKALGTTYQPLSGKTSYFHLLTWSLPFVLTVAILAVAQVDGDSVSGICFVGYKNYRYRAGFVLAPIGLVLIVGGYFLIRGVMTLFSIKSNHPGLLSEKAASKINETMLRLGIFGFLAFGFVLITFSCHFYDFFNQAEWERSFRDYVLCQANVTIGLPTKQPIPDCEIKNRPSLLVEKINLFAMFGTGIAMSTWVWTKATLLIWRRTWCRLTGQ
Experiment: ligand-observed 1D 1H NMR titration (line broadening), purified SMO in SMA-nanodiscs
Assay type: binding

Kd	SMILES
15.9 ± 4.4 nM	CN[C@H]1CC[C@H](N(Cc2cccc(-c3ccncc3)c2)C(=O)c2sc3ccccc3c2Cl)CC1 [SAG]
2.3 ± 1.2 nM	Cc1nn(-c2ccccc2)c(C)c1/C=N/N1CCN(Cc2ccccc2)CC1 [SANT-1]
